Data reported in US11111251B2, “Positive allosteric modulators of the muscarinic acetylcholine receptor M1” (Vanderbilt University, priority 2016, dated 2021).
Like-named read-outs stand apart in the source and are kept apart here.

Biological target: T1, human mAChR M1 (Homo sapiens, UniProt P11229)
T1 sequence (P11229 1-460): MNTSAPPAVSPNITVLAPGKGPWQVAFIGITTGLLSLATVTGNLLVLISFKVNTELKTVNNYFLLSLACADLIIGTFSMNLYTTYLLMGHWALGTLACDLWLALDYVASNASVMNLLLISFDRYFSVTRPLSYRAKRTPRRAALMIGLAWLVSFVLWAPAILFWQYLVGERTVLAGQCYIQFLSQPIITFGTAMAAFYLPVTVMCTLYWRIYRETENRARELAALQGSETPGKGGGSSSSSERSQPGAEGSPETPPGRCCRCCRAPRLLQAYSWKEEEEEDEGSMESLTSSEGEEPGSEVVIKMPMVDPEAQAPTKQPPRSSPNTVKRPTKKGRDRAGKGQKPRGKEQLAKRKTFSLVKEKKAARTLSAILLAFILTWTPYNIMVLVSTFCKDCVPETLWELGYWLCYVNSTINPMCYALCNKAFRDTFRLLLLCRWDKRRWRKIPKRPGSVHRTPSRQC
Assay: mAChR M1 cell-based functional assay: calcium mobilization, positive allosteric modulator mode (increase in EC20 acetylcholine response)
Details: for Emax: read-out: Human M1 Emax (%)
Outline: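 PAM potency reflects the concentration-dependent increase in calcium response to an EC20 acetylcholine challenge, given 144 s into a 300 s read after compound addition at 4 s (EC80 follows at 230 s). Cells were hM1-expressing CHO-K1, loaded 50 min with Fluo-4 AM. Curves used 11 points at 1:3 dilutions and four-parameter logistic fitting.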

[1] = Table 2, human M1, read-out: Human M1 EC50

EC50 [1]	Emax (Table 2, human M1)	EC50 (Table 1, mAChR M1 cell-based functional assay, PAM mode, species not given, read-out: EC50)	Structure (SMILES)	Emax
> 10000 nM	16%		COC1CC(NC(=O)c2cc(Cc3ccc(-c4cn(C)nc4C)cc3)c3sccc3n2)C1 (stereo not drawn) [Compound 246, 7-[[4-(1,3-dimethylpyrazol-4-yl)phenyl]methyl]-N-(3-methoxycyclobutyl)thieno[3,2-b]pyridine-5-carboxamide]	
390 nM	84.8%		Cn1ccc(-c2ccc(Cc3cc(C(=O)NCC4CCOC4)nc4ccsc34)cn2)n1 (stereo not drawn) [Compound 356, 7-[[6-(1-methylpyrazol-3-yl)-3-pyridyl]methyl]-N-(tetrahydrofuran-3-ylmethyl)thieno[3,2-b]pyridine-5-carboxamide]	
9700 nM	22.8%		Cc1ccc(Cc2cc(C(=O)NC3C(=O)Nc4ccccc43)nc3ccsc23)cn1 (stereo not drawn) [Compound 68, 7-[(6-methyl-3-pyridyl)methyl]-N-(2-oxoindolin-3-yl)thieno[3,2-b]pyridine-5-carboxamide]	
225 nM	88.3%		Cn1cc(-c2ccc(Cc3cc(C(=O)NCC4CCCCO4)nc4ccsc34)cn2)cn1 (stereo not drawn) [Compound 340, 7-[[6-(1-methylpyrazol-4-yl)-3-pyridyl]methyl]-N-(tetrahydropyran-2-ylmethyl)thieno[3,2-b]pyridine-5-carboxamide]	
> 10000 nM	52.8%		Cc1ccc(Cc2cc(C(=O)NC3CC4(COC4)C3)nc3ccsc23)cn1 [Compound 261, 7-[(6-methyl-3-pyridyl)methyl]-N-(2-oxaspiro[3.3]heptan-6-yl)thieno[3,2-b]pyridine-5-carboxamide]	
260 nM	89.2%		CO[C@@H]1CCCC[C@H]1NC(=O)c1cc(Cc2ccc(-c3cn(C)nn3)cc2)c2sccc2n1 [Compound 156, N-[(1R,2R)-2-methoxycyclohexyl]-7-[[4-(1-methyltriazol-4-yl)phenyl]methyl]thieno[3,2-b]pyridine-5-carboxamide]	
400 nM	64.2%		Cn1ccc(-c2ccc(Cc3cc(C(=O)NC4CC(F)(F)C4)nc4ccsc34)cn2)n1 [Compound 420, N-(3,3-difluorocyclobutyl)-7-[[6-(1-methylpyrazol-3-yl)-3-pyridyl]methyl]thieno[3,2-b]pyridine-5-carboxamide]	
752 nM	79.4%		Cn1ccc(-c2ccc(Cc3cc(C(=O)NC4CCOCC4(C)C)nc4ccn(C)c34)cn2)n1 (stereo not drawn) [Compound 505, N-(3,3-dimethyltetrahydropyran-4-yl)-1-methyl-7-[[6-(1-methylpyrazol-3-yl)-3-pyridyl]methyl]pyrrolo[3,2-b]pyridine-5-carboxamide;]	
1480 nM	63.7%		O=C1CC(NC(=O)c2cc(Cc3ccc(-n4cccn4)cc3)c3sccc3n2)CN1 (stereo not drawn) [Compound 441, N-(5-oxopyrrolidin-3-yl)-7-[(4-pyrazol-1-ylphenyl)methyl]thieno[3,2-b]pyridine-5-carboxamide]	
975 nM	80.8%		Cn1cc(-c2ccc(Cc3cc(C(=O)N[C@H]4CCOC4)nc4ccsc34)cn2)cn1 [Compound 343, 7-[[6-(1-methylpyrazol-4-yl)-3-pyridyl]methyl]-N-[(3S)-tetrahydrofuran-3-yl]thieno[3,2-b]pyridine-5-carboxamide]	
234 nM	70.3%		Cn1ccc(-c2ccc(Cc3cc(C(=O)N[C@@H]4CC[C@H]4O)nc4ccsc34)cc2)n1 [Compound 251, N-[(1R,2R)-2-hydroxycyclobutyl]-7-[[4-(1-methylpyrazol-3-yl)phenyl]methyl]thieno[3,2-b]pyridine-5-carboxamide]	
> 10000 nM	38.5%		O=C(NC12CC(C1)C2)c1cc(Cc2ccc(-c3cscn3)cc2)c2sccc2n1 [Compound 201, N-(3-bicyclo[1.1.1]pentanyl)-7-[(4-thiazol-4-ylphenyl)methyl]thieno[3,2-b]pyridine-5-carboxamide]	
287 nM	64.5%		CC1CC(NC(=O)c2cc(Cc3ccc(-c4cnn(C)c4)cc3)c3sccc3n2)CC(C)O1 (stereo not drawn) [Compound 380, N-(2,6-dimethyltetrahydropyran-4-yl)-7-[[4-(1-methylpyrazol-4-yl)phenyl]methyl]thieno[3,2-b]pyridine-5-carboxamide]	

Second part, the molecule before the results:

Structure (SMILES)	EC50 [1]	Emax (Table 2, human M1)	EC50 (Table 1, mAChR M1 cell-based functional assay, PAM mode, species not given, read-out: EC50)	Emax
Cc1csc2c(Cc3ccc(-n4cccn4)cc3)cc(C(=O)N[C@@H]3CCOC[C@H]3O)nc12 [Compound 117, N-[(3S,4R)-3-hydroxytetrahydropyran-4-yl]-3-methyl-7-[(4-pyrazol-1-ylphenyl)methyl]thieno[3,2-b]pyridine-5-carboxamide]	83.3 nM	76.6%		
O=C(NC1CCCOC1)c1cc(Cc2ccc(-c3nccs3)cc2)c2sccc2n1 (stereo not drawn) [Compound 366, N-tetrahydropyran-3-yl-7-[(4-thiazol-2-ylphenyl)methyl]thieno[3,2-b]pyridine-5-carboxamide]	1870 nM	83.7%		
Cc1ncc(Cc2cc(C(=O)NC3CCCCNC3=O)nc3ccsc23)s1 (stereo not drawn) [Compound 144, 7-[(2-methylthiazol-5-yl)methyl]-N-(2-oxoazepan-3-yl)thieno[3,2-b]pyridine-5-carboxamide]	> 10000 nM	50.7%		
Cn1ccc2nc(C(=O)NC3CCOCC3(C)C)cc(Cc3ccc(-c4nccs4)cc3)c21 (stereo not drawn) [Compound 485, N-(3,3-dimethyltetrahydropyran-4-yl)-1-methyl-7-[(4-thiazol-2-ylphenyl)methyl]pyrrolo[3,2-b]pyridine-5-carboxamide]	662 nM			61.6%
O=C(c1cc(Cc2ccc(-n3cccn3)cc2)c2sccc2n1)N1CC2CC1CO2 (stereo not drawn) [Compound 445, 2-oxa-5-azabicyclo[2.2.1]heptan-5-yl-[7-[(4-pyrazol-1-ylphenyl)methyl]thieno[3,2-b]pyridin-5-yl]methanone]	> 10000 nM	50.7%		
Cn1ccc2nc(C(=O)NC3CCOCC3)cc(Cc3ccc(-c4cscn4)cc3)c21 [Compound 451, 1-methyl-N-tetrahydropyran-4-yl-7-[(4-thiazol-4-ylphenyl)methyl]pyrrolo[3,2-b]pyridine-5-carboxamide]	184 nM	71.7%		
O=C(N[C@H]1CC[C@@H]1O)c1cc(Cc2ccc(-c3nccs3)cc2)c2sccc2n1 [Compound 297, N-[(1S,2S)-2-hydroxycyclobutyl]-7-[(4-thiazol-2-ylphenyl)methyl]thieno[3,2-b]pyridine-5-carboxamide]	225 nM	76.4%		
Cc1csc2c(Cc3ccc(-n4cccn4)cc3)cc(C(=O)NCC3CCOC3)nc12 (stereo not drawn) [Compound 321, 3-methyl-7-[(4-pyrazol-1-ylphenyl)methyl]-N-(tetrahydrofuran-3-ylmethyl)thieno[3,2-b]pyridine-5-carboxamide]	805 nM	79.2%		
O=C(N[C@@H]1CCC[C@H]1O)c1cc(Cc2ccc(-n3cccn3)cc2)c2sccc2n1 [Compound 71, N-[(1R,2R)-2-hydroxycyclopentyl]-7-[(4-pyrazol-1-ylphenyl)methyl]thieno[3,2-b]pyridine-5-carboxamide]	80.3 nM	92.7%		
Cc1ccc(Cc2cc(C(=O)NC3C4CC5C[C@H]3CC(O)(C5)C4)nc3c(C)csc23)cn1 (stereo partly drawn) [Compound 109, N-[(1S)-5-hydroxy-2-adamantyl]-3-methyl-7-[(6-methyl-3-pyridyl)methyl]thieno[3,2-b]pyridine-5-carboxamide]	3250 nM	54.6%		
Cn1cc2c(-c3ccc(Oc4cc(C(=O)N[C@H]5CCOC[C@@H]5O)nc5ccsc45)c(F)c3)cccc2n1 [Compound 13, 7-[2-fluoro-4-(2-methylindazol-4-yl)phenoxy]-N-[(3R,4S)-3-hydroxytetrahydropyran-4-yl]thieno[3,2-b]pyridine-5-carboxamide]			4120 nM	
Cc1nc(-c2ccc(Cc3cc(C(=O)N[C@@H]4COCC[C@H]4O)nc4ccsc34)cc2)co1 [Compound 167, N-[(3R,4R)-4-hydroxytetrahydropyran-3-yl]-7-[[4-(2-methyloxazol-4-yl)phenyl]methyl]thieno[3,2-b]pyridine-5-carboxamide]	25.3 nM	90.4%		
O=C(N[C@@H]1CCCCC[C@H]1O)c1cc(Cc2ccc(-n3cccn3)cc2)c2sccc2n1 [Compound 77, N-[(1R,2R)-2-hydroxycycloheptyl]-7-[(4-pyrazol-1-ylphenyl)methyl]thieno[3,2-b]pyridine-5-carboxamide]	136 nM	84.8%		
Cc1nc(-c2ccc(Cc3cc(C(=O)NC4CC(C)OC(C)C4)nc4ccsc34)cc2)co1 (stereo not drawn) [Compound 299, N-(2,6-dimethyltetrahydropyran-4-yl)-7-[[4-(2-methyloxazol-4-yl)phenyl]methyl]thieno[3,2-b]pyridine-5-carboxamide]	702 nM	75%		
O=C(N[C@H]1CCOC1)c1cc(Cc2ccc(-c3nccs3)cc2)c2sccc2n1 [Compound 369, N-[(3S)-tetrahydrofuran-3-yl]-7-[(4-thiazol-2-ylphenyl)methyl]thieno[3,2-b]pyridine-5-carboxamide]	2290 nM	59.5%		
CC1COCCC1NC(=O)c1cc(Cc2ccc(-c3nccs3)cc2)c2sccc2n1 (stereo not drawn) [Compound 370, N-(3-methyltetrahydropyran-4-yl)-7-[(4-thiazol-2-ylphenyl)methyl]thieno[3,2-b]pyridine-5-carboxamide]	400 nM	77.7%		
